Measurements as given in patent publication US10227347B2, “Purinyl-N-hydroxyl pyrimidine formamide derivative, preparation methods and uses thereof” (Guizhou Bailing Group Pharmaceutical CO., LTD., priority 2015, dated 2019).
Read-outs that look alike come from different tables or passages of the source.

Legend:
PI3Kα = molecular target: T1, PI3Kα (Homo sapiens, UniProt P42336); assay: PI3Kα activity inhibition (Kinase-Glo); format: biochemical
T1 construct: purchased Invitrogen PV4788
Summary of the method: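 Kinase-Glo luminescence read-out of remaining ATP after PI3K reaction with PIP2 and ATP substrates in 50 mM HEPES pH 7.5, 3 mM MgCl2, 1 mM EGTA, 100 mM NaCl, 0.03% CHAPS, 2 mM DTT. Incubated at ambient temperature, 1 h for PI3Kα, 2 h for PI3Kδ. IC50 from four-parameter fit of % inhibition versus concentration.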

PI3Kβ = molecular target: T2, PI3Kβ (Homo sapiens, UniProt P42338); assay: PI3Kβ activity inhibition (ADP-Glo); format: biochemical
T2 construct: purchased Millipore 14-603-K
Procedure: (§1) Detecting the inhibition capability of the compound to PI3Kβ and PI3Kγ activities with ADP-Glo (purchased from Promege Company; Catalog No.: v9102/3). […] The reaction system also comprises substrates as PIP2 and ATP. The reaction buffer system comprises 50 mM HEPES, 3 mM MgCl2, 1 mM EGTA, 100 mM NaCl, 0.03% CHAPS and 2 mM DTT. The pH value of the reaction buffer is 7.5. […] Mixing the system evenly for incubation under ambient temperature for 1 h; getting a new 384 well plate and transferring 5 μL reaction liquid from the each well of original 384 well plate to the corresponding wells of the new 384 well plate; adding 5 μL ADP-Glo which has been preheated to ambient temperature into each new reaction well to terminate the reaction; oscillating it slowly in dark place for 40 min's incubation after it is mixed evenly; adding 10 μL testing liquid in each reaction well, oscillating it for 1 min to mix evenly and incubating it for 1 h, then measuring the fluorescence intensity with a microplate reader and analyzing the result data with the software GraphPad Prism.
(§2) Calculating the value of IC50 as per the formula: Y=background data+(top data−background data)/(1+10^((Log IC50−X)*rate of curve))
(§3) Where, Y refers to the inhibition ratio (%) and X refers to the compound concentration.

PI3Kδ = molecular target: T3, PI3Kδ (Homo sapiens, UniProt O00329); assay: PI3Kδ activity inhibition (Kinase-Glo); format: biochemical
T3 construct: purchased Millipore 14-604-K
Procedure: Detecting the inhibition capability of the compound to PI3Kα and PI3Kδ activities with Kinase-Glo (purchased from Promege Company; Catalog No.: V3771). […] The reaction system also comprises substrates as PIP2 (4, 5-diphosphoinositide, purchased from Life Technologies Company) and ATP (triphosadenine, purchased from Sigma Company). The reaction buffer system comprises 50 mM HEPES (4-hydroxyethylpiperazine ethane sulfonic acid), 3 mM MgCl2, 1 mM EGTA (ethylene glycol bis(2-amino ethylether)quadrol), 100 mM NaCl, 0.03% CHAPS (3-[3-(cholamidopropyl)dimethylamino]-1-propanesulfonic acid), 2 mM DTT (dithiothreitol). The pH value of the reaction buffer is 7.5. […] Mixing the system evenly for incubation under ambient temperature (for 1 h in PI3Kα test and for 2 h in PI3Kδ test). After incubation, adding 10 μL Kinase-Glo which has been preheated to ambient temperature into each reaction well to terminate the reaction; shaking it in dark place for 15 min after it is mixed evenly, then measuring the fluorescence intensity with a microplate reader and analyzing the result data with the software GraphPad Prism.
as §2, §3

PI3Kγ = molecular target: T4, PI3Kγ (Homo sapiens, UniProt P48736); assay: PI3Kγ activity inhibition (ADP-Glo); format: biochemical
T4 construct: purchased Invitrogen PR8641C
Procedure: as §1, §2, §3

mTOR = molecular target: T5, mTOR (Homo sapiens, UniProt P42345); assay: mTOR activity inhibition (ULight-4E-BP1 peptide); format: biochemical; conditions: Table 1, graded
T5 construct: purchased Millipore 14-770
Procedure: mTOR protein is purchased from Millipore Company (Catalog No.: 14-770). The reaction buffer system comprises 50 mM HEPES, 10 mM MgCl2, 1 mM EGTA, 3 mM […], 0.01% Tween-20 (purchased from Chengdu Kelong Chemical Regent Factory) and 2 mM DTT. The pH value of the reaction buffer is 7.5. Preparing 10 μL reaction system in corresponding wells of the 384 well plate, which contains the compositions as: the compound with designed concentration (or blank control), mTOR protein (with the concentration of 2.5 nM), ULight-4E-BP1 (containing the 37th and the 46th threonine residues, Thr37/46) peptide (purchased from PE Company, Catalog No.: TRF0128-M) and ATP substrates (ULight-4E-BP1 peptide, with the concentration of 50 nM and ATP, with the concentration of […]). Mixing it evenly for incubation under ambient temperature for 1 h; adding 10 μL testing liquid containing EDTA (ethylenediaminetetraacetic acid) and Eu-anti-phosphorylation-4E-BP1 (Thr37/46) antibody (purchased from PE Company, Catalog No.: TRF0216-M) into the reaction wells (after the testing liquid is added, the concentration of EDTA is 8 mM and the concentration of Eu-phosphorylation-4E-BP1 antibody is 2 nM); mixing it evenly and incubating it for 1 h under ambient temperature, then measuring the fluorescence intensity with a microplate reader and analyzing the result data with the software GraphPad Prism.
as §2, §3

[1] = tested on: human breast cancer MDA-MB-231 subcutaneous tumor; assay: Subcutaneous tumor model, human breast cancer MDA-MB-231; conditions: once per 2 days
Procedure: (§4) Cell MM1S is cultured in RPMI1640 medium (HyClone) which contains 10% fetal calf serum (Hohhot Caoyuan Lvye Bioengineering Material Co., Ltd.) and 100 U/mL penicillin and streptomycin (Beyotime).
(§5) 3) Inoculation, grouping and treatment: collecting cells in logarithmic phase under aseptic conditions and counting; diluting the single cell suspension with the medium containing neither fetal calf serum nor antibiotics to 1×10^7-8 cell/mL for standby. Mixing the cell suspension; injecting 100 μL of cell suspension (5×10^6-2×10^7 cells) subcutaneously with a 1 mL injector on the right side of the back of animals. Weeding out the animals with oversized and undersized tumor when the tumor grows to an average volume of about 120 mm^3 and grouping the qualified animals for treatment and drug administration. Refer to Table 7 for each grouping model and drug administration frequency. Measuring the weight of each model per 2 days and measuring the length and width of the tumor with a vernier caliper; killing the tested animals through cervical dislocation and peeling off their tumors for weight measuring and photographing. Then calculating the tumor inhibition ratio (%) and evaluating the inhibition intensity to tumor with such tumor inhibition ratio.

[2] = tested on: human multiple myeloma MM1S subcutaneous tumor; assay: Subcutaneous tumor model, human multiple myeloma MM1S; conditions: once per 2 days
Procedure: as §4, §5

[3] = tested on: human breast cancer MCF-7 subcutaneous tumor; assay: Subcutaneous tumor model, human breast cancer MCF-7; conditions: once per 2 days
[4] = tested on: human B-cell lymphoma Raji subcutaneous tumor; assay: Subcutaneous tumor model, human B-cell lymphoma Raji; conditions: once per 2 days, intraperitoneal
[5] = tested on: human colon cancer hct116 subcutaneous tumor; assay: Subcutaneous tumor model, human colon cancer hct116; conditions: once per 2 days, intravenous
[6] = Table 1, graded, read-out: PI3Kα IC50
[7] = Table 4, graded, read-out: PI3Kα IC50

T1 sequence (P42336 whole entry, species assumed): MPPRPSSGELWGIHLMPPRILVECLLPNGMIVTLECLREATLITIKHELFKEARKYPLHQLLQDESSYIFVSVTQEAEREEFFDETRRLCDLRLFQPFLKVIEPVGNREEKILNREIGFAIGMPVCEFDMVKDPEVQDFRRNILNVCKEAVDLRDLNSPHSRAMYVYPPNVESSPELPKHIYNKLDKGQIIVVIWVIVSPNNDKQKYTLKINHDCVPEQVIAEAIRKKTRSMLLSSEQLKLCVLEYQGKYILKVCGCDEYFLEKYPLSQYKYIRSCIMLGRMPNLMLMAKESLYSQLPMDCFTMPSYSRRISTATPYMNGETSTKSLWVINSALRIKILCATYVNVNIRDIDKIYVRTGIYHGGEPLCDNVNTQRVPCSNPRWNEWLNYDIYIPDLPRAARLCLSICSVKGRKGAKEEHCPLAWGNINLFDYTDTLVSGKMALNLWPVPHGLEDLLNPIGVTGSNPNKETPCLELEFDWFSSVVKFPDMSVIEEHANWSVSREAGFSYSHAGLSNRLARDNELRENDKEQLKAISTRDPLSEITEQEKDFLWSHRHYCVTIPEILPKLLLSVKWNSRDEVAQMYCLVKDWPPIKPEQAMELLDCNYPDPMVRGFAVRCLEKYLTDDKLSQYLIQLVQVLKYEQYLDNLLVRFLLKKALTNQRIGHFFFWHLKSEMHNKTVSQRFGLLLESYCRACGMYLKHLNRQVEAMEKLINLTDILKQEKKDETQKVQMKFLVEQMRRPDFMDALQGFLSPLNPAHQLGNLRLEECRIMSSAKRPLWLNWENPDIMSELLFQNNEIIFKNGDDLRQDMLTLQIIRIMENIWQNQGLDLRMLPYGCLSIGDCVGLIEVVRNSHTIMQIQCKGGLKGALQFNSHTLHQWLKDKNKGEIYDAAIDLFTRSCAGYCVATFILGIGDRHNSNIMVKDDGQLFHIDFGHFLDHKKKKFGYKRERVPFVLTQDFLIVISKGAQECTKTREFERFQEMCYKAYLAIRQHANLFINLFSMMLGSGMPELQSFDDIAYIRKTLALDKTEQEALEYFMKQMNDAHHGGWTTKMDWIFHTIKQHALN
T1 sequence (P27986 whole entry partner, species assumed): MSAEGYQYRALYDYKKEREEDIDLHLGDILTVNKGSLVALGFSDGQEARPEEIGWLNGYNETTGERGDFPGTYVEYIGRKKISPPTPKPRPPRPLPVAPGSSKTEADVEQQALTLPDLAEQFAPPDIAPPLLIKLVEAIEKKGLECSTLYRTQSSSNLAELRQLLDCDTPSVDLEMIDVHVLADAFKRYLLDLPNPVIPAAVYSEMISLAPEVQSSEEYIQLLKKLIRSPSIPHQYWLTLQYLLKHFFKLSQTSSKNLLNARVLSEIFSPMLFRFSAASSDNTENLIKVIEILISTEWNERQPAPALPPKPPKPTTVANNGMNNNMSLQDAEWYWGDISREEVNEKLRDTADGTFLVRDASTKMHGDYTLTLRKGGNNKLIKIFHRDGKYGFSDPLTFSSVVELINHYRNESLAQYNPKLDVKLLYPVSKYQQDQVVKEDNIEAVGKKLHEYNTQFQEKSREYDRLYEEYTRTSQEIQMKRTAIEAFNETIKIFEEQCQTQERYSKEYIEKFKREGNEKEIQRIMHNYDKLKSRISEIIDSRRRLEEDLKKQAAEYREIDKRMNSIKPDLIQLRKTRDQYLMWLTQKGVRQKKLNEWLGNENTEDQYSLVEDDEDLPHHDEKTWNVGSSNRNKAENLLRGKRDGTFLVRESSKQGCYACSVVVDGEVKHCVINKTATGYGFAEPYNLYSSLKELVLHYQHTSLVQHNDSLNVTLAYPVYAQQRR
T3 sequence (O00329 whole entry): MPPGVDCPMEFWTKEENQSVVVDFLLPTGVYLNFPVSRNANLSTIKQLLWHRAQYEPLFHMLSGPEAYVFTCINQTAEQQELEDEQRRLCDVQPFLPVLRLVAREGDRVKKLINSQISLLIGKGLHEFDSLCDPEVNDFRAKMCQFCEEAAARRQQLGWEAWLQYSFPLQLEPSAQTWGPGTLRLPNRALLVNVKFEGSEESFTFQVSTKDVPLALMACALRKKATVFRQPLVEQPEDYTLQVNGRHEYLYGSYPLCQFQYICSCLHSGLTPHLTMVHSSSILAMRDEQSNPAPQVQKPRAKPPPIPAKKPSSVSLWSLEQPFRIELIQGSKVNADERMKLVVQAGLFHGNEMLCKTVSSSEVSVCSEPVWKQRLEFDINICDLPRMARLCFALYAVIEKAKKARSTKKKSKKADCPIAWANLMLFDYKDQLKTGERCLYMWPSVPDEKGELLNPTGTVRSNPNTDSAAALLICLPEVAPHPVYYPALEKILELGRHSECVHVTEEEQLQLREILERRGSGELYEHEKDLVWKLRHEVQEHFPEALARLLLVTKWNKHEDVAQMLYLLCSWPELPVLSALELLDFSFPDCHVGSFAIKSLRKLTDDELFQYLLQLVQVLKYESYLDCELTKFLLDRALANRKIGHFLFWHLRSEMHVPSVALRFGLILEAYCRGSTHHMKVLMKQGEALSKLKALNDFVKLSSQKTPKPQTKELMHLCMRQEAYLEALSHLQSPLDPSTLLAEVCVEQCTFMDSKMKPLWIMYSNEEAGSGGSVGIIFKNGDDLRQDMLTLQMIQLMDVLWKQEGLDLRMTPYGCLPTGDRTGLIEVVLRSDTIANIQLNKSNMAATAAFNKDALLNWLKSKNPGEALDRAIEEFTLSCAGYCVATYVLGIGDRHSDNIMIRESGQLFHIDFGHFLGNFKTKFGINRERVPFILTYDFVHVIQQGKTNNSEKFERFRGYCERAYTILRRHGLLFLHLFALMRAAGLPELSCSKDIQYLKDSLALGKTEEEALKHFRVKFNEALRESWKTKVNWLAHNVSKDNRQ
T3 sequence (P27986 whole entry partner): as the sequence (P27986 whole entry partner, species assumed) above
T2 sequence (P42338 whole entry, species assumed): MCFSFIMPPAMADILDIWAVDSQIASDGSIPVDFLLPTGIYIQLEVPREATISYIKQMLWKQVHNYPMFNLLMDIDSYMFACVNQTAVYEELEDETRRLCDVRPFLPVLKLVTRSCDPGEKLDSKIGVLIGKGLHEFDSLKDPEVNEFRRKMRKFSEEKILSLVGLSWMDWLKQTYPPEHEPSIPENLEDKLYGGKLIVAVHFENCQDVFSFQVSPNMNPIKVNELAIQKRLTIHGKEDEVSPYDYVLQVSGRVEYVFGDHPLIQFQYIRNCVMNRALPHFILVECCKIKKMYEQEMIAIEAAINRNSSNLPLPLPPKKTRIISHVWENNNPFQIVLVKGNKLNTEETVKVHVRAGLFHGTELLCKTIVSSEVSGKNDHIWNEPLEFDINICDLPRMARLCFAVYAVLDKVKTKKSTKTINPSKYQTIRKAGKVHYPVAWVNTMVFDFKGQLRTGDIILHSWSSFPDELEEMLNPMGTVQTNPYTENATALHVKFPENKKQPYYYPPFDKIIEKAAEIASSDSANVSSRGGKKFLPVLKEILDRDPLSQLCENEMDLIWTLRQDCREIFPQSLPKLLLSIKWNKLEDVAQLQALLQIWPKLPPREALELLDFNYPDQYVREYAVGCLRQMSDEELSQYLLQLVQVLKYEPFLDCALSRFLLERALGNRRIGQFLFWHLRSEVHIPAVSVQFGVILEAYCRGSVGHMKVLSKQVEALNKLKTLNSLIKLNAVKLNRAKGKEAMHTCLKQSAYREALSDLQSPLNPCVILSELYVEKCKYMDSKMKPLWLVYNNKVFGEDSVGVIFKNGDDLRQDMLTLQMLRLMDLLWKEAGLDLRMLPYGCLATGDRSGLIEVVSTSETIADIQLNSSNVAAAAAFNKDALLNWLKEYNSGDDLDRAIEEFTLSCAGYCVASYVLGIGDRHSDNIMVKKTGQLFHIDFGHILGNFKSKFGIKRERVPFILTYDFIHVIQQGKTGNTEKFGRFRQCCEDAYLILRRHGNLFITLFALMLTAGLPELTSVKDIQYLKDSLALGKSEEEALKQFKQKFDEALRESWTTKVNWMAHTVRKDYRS
T2 sequence (P27986 whole entry partner, species assumed): as the sequence (P27986 whole entry partner, species assumed) above
T4 sequence (P48736 whole entry): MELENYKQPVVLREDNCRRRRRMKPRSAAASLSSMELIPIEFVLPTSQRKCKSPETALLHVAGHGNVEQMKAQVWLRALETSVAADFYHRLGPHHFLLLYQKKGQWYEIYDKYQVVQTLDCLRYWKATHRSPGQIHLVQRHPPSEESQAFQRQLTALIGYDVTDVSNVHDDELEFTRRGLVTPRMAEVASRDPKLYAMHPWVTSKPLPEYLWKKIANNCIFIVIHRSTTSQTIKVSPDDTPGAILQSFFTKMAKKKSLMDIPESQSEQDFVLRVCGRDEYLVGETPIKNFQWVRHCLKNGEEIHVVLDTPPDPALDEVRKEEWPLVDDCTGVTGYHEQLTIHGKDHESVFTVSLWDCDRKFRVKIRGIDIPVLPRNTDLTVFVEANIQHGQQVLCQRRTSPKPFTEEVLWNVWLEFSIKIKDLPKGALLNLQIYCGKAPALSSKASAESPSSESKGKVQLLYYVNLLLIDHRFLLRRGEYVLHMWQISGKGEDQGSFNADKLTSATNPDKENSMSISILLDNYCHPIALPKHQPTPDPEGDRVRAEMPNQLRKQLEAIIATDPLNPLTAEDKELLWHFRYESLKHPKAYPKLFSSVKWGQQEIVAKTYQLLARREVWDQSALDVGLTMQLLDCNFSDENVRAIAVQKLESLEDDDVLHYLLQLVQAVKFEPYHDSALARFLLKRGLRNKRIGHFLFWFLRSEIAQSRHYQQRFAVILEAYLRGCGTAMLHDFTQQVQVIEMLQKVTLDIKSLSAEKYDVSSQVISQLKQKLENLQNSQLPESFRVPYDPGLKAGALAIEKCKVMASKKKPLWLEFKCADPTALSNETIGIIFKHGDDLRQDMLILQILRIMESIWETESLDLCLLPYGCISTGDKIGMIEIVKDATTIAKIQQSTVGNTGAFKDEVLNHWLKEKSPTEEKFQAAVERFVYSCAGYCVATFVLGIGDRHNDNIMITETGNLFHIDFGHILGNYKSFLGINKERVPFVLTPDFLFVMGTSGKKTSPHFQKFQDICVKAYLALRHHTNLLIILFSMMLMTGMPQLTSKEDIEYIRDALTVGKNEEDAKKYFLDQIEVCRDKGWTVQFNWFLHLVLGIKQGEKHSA

Question: Which results are given for `COc1ccc(-c2nc(N3CCOCC3)c3nc(CN(C)c4ncc(C(=O)NO)cn4)n(C)c3n2)cn1` [CLJ-1, 2-(((2-(6-methoxypyridine-3-yl)-9-methyl-6-morpholine-9H-purine-8-yl))methyl(methyl)amino)-N-hydroxyl pyrimidine-5-formamide]?
Answer: IC50 (PI3Kα; [6]): 1000 to 10000 nM; IC50 (PI3Kα; [7]): 1000 to 10000 nM; IC50 (PI3Kβ; Table 1, graded): 1000 to 10000 nM; IC50 (PI3Kβ; Table 4, graded): 1000 to 10000 nM; IC50 (PI3Kδ; Table 1, graded): 100 to 1000 nM; IC50 (PI3Kδ; Table 4, graded): 100 to 1000 nM; IC50 (PI3Kγ; Table 1, graded): 100 to 1000 nM; IC50 (PI3Kγ; Table 4, graded): 100 to 1000 nM; IC50 (mTOR): 1000 to 10000 nM

Question: Which results are given for `CN(Cc1nc2c(N3CCOCC3)nc(-c3cnc(N)nc3)nc2n1C)c1ncc(C(=O)NO)cn1` [CLJ-11, 2-(((2-(2-aminopyrimidine-5-yl)-9-methyl-6-morpholine-9H-purine-8-yl))methyl(methyl)amino)-N-hydroxyl pyrimidine-5-formamide]?
Answer: IC50 (PI3Kα; [6]): < 100 nM; IC50 (PI3Kα; [7]): 1 to 100 nM; IC50 (PI3Kα; read-out: inhibition value IC50 to the activity of PI3Kα): < 100 nM; IC50 (PI3Kβ; Table 1, graded): 100 to 1000 nM; IC50 (PI3Kβ; Table 4, graded): 1 to 100 nM; IC50 (PI3Kδ; Table 1, graded): 100 to 1000 nM; IC50 (PI3Kδ; Table 4, graded): 1 to 100 nM; IC50 (PI3Kγ; Table 1, graded): 100 to 1000 nM; IC50 (PI3Kγ; Table 4, graded): 1 to 100 nM; IC50 (mTOR): 100 to 1000 nM

Question: `COc1ccc(-c2nc(N3CCOCC3)c3nc(CN(C)c4ncc(C(=O)NO)cn4)n(C)c3n2)cc1` [CLJ-29, 2-(((2-(4-methoxyphenyl)-9-methyl-6-morpholine-9H-purine-8-yl))methyl(methyl)amino)-N-hydroxyl pyrimidine-5-formamide] was tested. Which IC50 (PI3Kα; [6]) did it give?
Answer: > 10000 nM

Question: What about the IC50 (PI3Kα; [7]) of the same molecule?
Answer: > 10000 nM

Question: What about the IC50 (PI3Kβ; Table 4, graded) of the same molecule?
Answer: > 10000 nM

Question: What about the IC50 (PI3Kδ; Table 4, graded) of the same molecule?
Answer: > 10000 nM

Question: What about the IC50 (PI3Kγ; Table 4, graded) of the same molecule?
Answer: > 10000 nM

Question: What does the source list for `Cc1[nH]c2ccccc2c1CCNCc1ccc(/C=C/C(=O)NO)cc1` [LBH589, panobinostat, reference compound]?
Answer: IC50 (PI3Kα; [7]): > 10000 nM; IC50 (PI3Kβ; Table 4, graded): > 10000 nM; IC50 (PI3Kδ; Table 4, graded): > 10000 nM; IC50 (PI3Kγ; Table 4, graded): > 10000 nM; Death ([1]; 10 mg/kg, intraperitoneal): 0/6; Inhibitory rate (%) ([1]; 10 mg/kg, intraperitoneal): 77.95%; Death ([2]; 10 mg/kg, intraperitoneal): 0/7; Inhibitory rate (%) ([2]; 10 mg/kg, intraperitoneal): 47.33%; Death ([3]; 10 mg/kg, intraperitoneal): 0/6; Inhibitory rate (%) ([3]; 10 mg/kg, intraperitoneal): 75.69%; Death ([4]; 10 mg/kg): 0/6; Inhibitory rate (%) ([4]; 10 mg/kg): 54.93%

Question: Which results are given for `CN(Cc1nc2c(N3CCOCC3)nc(-c3ccc(N)cc3)nc2n1C)c1ncc(C(=O)NO)cn1` [CLJ-44]?
Answer: IC50 (PI3Kα; [6]): 1000 to 10000 nM; IC50 (PI3Kα; [7]): 1000 to 10000 nM; IC50 (PI3Kβ; Table 4, graded): > 10000 nM; IC50 (PI3Kδ; Table 4, graded): > 10000 nM; IC50 (PI3Kγ; Table 4, graded): > 10000 nM; Death ([1]; 2.5 mg/kg, intravenous): 0/6; Inhibitory rate (%) ([1]; 2.5 mg/kg, intravenous): 72.1%; Death ([1]; 5 mg/kg, intravenous): 0/6; Inhibitory rate (%) ([1]; 5 mg/kg, intravenous): 83.9%; Death ([1]; 10 mg/kg, intravenous): 0/6; Inhibitory rate (%) ([1]; 10 mg/kg, intravenous): 86.9%; Death ([2]; 2.5 mg/kg, intravenous): 0/7; Inhibitory rate (%) ([2]; 2.5 mg/kg, intravenous): 45.09%; Death ([2]; 5 mg/kg, intravenous): 0/7; Inhibitory rate (%) ([2]; 5 mg/kg, intravenous): 69.65%; Death ([2]; 10 mg/kg, intravenous): 0/7; Inhibitory rate (%) ([2]; 10 mg/kg, intravenous): 71.94%; Death ([5]; 2.5 mg/kg): 0/6; Inhibitory rate (%) ([5]; 2.5 mg/kg): 49.4%; Death ([5]; 5 mg/kg): 0/6; Inhibitory rate (%) ([5]; 5 mg/kg): 53.3%; Death ([5]; 10 mg/kg): 0/6; Inhibitory rate (%) ([5]; 10 mg/kg): 68.2%; Death ([3]; 2.5 mg/kg, intravenous): 0/6; Inhibitory rate (%) ([3]; 2.5 mg/kg, intravenous): 69.58%; Death ([3]; 5 mg/kg, intravenous): 0/6; Inhibitory rate (%) ([3]; 5 mg/kg, intravenous): 77.58%; Death ([3]; 10 mg/kg, intravenous): 0/6; Inhibitory rate (%) ([3]; 10 mg/kg, intravenous): 82.24%; Death ([4]; 5 mg/kg): 0/6; Inhibitory rate (%) ([4]; 5 mg/kg): 76.96%; Death ([4]; 10 mg/kg): 0/6; Inhibitory rate (%) ([4]; 10 mg/kg): 97.34%; Death ([4]; 20 mg/kg): 0/6; Inhibitory rate (%) ([4]; 20 mg/kg): 99.29%
